# Source: article PMC3900240 (Biochimica et biophysica acta, 2013)
# Target: T1, SoArsAB (Sporomusa ovata, UniProt F6MZ55+F6MZ56)
# T1 sequence (F6MZ55 5-350 limits assumed): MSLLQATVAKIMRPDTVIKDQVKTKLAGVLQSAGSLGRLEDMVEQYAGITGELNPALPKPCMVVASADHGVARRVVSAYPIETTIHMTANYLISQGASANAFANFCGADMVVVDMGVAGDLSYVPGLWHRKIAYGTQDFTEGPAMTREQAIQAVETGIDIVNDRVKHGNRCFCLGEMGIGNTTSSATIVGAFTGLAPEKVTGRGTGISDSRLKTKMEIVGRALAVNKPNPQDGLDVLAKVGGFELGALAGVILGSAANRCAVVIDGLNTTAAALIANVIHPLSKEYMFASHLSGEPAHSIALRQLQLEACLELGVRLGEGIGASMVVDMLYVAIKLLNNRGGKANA
# T1 sequence (F6MZ56 1-350): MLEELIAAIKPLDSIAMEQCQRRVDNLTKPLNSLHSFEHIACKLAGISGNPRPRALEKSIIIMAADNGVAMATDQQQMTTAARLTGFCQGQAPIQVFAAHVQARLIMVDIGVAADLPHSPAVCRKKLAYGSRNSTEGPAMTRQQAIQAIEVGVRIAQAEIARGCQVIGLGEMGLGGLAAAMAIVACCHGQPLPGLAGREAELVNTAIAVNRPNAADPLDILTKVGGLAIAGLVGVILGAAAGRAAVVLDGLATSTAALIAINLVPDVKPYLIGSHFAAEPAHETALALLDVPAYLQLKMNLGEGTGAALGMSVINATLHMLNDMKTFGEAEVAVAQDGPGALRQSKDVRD
# Test: HPLC product formation
# Type: biochemical
# Details: pH 10, 37 °C, 6 h
smiles,measurement,setting,value
Cc1ccc(O)cc1 [p-cresol],HPLC product formation,3 mM NaMN,"using SeCobT^WT, SeCobT^S80Y,Q88M,L175M or SoArsAB with NaMN and p-cresol"
"O=C([O-])c1ccc[n+]([C@@H]2O[C@H](COP(=O)(O)O)[C@@H](O)[C@H]2O)c1 [NaMN, nicotinate mononucleotide]",HPLC product formation,3 mM p-cresol,"using SeCobT^WT, SeCobT^S80Y,Q88M,L175M or SoArsAB with NaMN and p-cresol"
